Legend:
[1] = tested on: CT26 cells (colon adenocarcinoma); assay: Oncological angiogenesis model, subcutaneous CT26 tumors; type: in vivo, Balb/c rats; conditions: day 31; single iv dose on day 7: Suramine 20 mg/Kg, Bevacizumab 5 mg/Kg, suramab = Suramine 20 mg/Kg + Bevacizumab 5 mg/Kg
Protocol: 5×10^5 CT26 cells (colon adenocarcinoma) were inoculated subcutaneously, in the dorsal-lateral region of Balb/c rats. On the 7th day of inoculation 4 groups of animals were formed that received different treatments via iv (in the tail vein).
• a. […] Control group: (n=7) PS 100 μl under slow infusion.
The tumors were measured three times per week. The following formula was used to calculate the tumor volume: […]. The animals having tumors volumes greater or equal to 8000 mm3 were sacrificed.
Survival was considered till day 35 post tumor inoculation.

corneal neovasculization = assay: Corneal neovasculization model (NaOH alkali burn of the cornea), neovasculization index; type: in vivo; conditions: rabbit, during 35 days of evaluation, single iv dose
Protocol: After anaesthetizing a Newzealender breed white rabbit of 3 kg. with a midazolam and ketamine hydrochloride with an intramuscular injection, installation of topical proparacaine was performed (Anestalcon, Alcon, Argentina) in the eye and a blepharostat was place on the right eye. During 20 seconds 7 mm diameter dicks of Whatman filter paper were soaked in a 1N NaOH solution. The paper disk was placed on the central part of the cornea with a pincer leaving it there for 2 minutes. Immediately afterwards the injured zone was washed with 15 ml saline physiological solution (CINa, 0.9%) during one minute. The same process was performed on 12 rabbits of the same color, breed and weight.
Formation of neovessels were quantified with a value of 0 to 4 to each quadrant according to the centripetal growth of the longest vessel (in 1 mm increases i.e, 0=0 mm; 1=equal or less than 1 mm; 2=more than 1 and up to 2 mm; 3=more than 2 and up to 3 mm; 4=more than 3 mm). The sum of the four quadrants provided the neovasculization index (INV) for that eye.
24 hs after the lesion was caused the first clinical examination was performed and was then continued every three days. This was carried out using an operator microscope or a surgical magnifying glass and photographs were taken with a digital camera Nikon Coolpix 5700. The INV register was performed on days 9, 15, 21 and 35 on all the animals. […]

| Compound | tumor volume compared to the control group (in words) [1] | effect on corneal neovasculization (in words) (corneal neovasculization) |
| --- | --- | --- |
| Bevacizumab: monoclonal antibody, humanized and recombinant, that binds to VEGF-A | reduction of tumor volume compared to the control group | inhibiting effect on neovasculization |
| Cc1ccc(C(=O)Nc2ccc(S(=O)(=O)O)c3cc(S(=O)(=O)O)cc(S(=O)(=O)O)c23)cc1NC(=O)c1cccc(NC(=O)Nc2cccc(C(=O)Nc3cc(C(=O)Nc4ccc(S(=O)(=O)O)c5cc(S(=O)(=O)O)cc(S(=O)(=O)O)c45)ccc3C)c2)c1 [Suramine] | reduction of tumor volume compared to the control group | inhibiting effect on neovasculization |

Reference: patent US9023350B2, “Synergistic pharmaceutical composition useful for inhibiting corneal and retinal neovascularization (angiogenesis), and in other organs, in a human being or animals” (Association Civil de Estudios Superiores, priority 2007, dated 2015)
